Measurements published in US20060281719A1, “Oestrogen-17-sulphamates as inhibitors of steroid sulphatase” (priority 2000, published 2006).
Where “and” joins values, the source holds several entries; their conditions need not be identical. Equal entries are not always repeated. Where two headings read alike, the source gives them in different places.

Tests used:
Plate assay % inhibition = assay type: cell-based; conditions: -ve % means stimulation
[1] = target: T1, oestrone sulphatase (E1-STS) (Homo sapiens, UniProt P08842); test: Inhibition of steroid sulphatase activity in placental microsomes; assay type: biochemical; design: from tissue; host or cells: human term placenta (microsomal preparation); conditions: for inhibition at 0.01 µM / inhibition at 1 µM: read-out: Placental Microcsomes % inhibition
T1 sequence (P08842 22-583): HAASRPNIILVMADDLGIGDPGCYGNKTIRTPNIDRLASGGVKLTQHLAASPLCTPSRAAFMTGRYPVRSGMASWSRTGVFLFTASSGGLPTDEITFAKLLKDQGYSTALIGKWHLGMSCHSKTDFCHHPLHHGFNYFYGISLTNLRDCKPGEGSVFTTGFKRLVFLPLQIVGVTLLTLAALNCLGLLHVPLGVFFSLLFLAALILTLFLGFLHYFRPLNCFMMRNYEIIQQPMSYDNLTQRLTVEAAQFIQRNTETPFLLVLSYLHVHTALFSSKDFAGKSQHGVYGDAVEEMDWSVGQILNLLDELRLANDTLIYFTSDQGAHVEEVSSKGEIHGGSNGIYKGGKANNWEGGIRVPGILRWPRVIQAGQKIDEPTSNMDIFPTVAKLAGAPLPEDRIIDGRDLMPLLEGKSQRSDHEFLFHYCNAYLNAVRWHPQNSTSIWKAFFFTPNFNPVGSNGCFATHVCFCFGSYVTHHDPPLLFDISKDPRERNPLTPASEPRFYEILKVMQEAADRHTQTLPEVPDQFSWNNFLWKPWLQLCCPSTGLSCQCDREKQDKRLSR

tubulin = test: Colchicine Displacement Assay (tubulin binding); design: concentration or dose not given beside the values
[2] = target: T1, oestrone sulphatase (E1-STS); test: Inhibition of steroid sulphatase (E1-STS) activity in intact MCF-7 breast cancer cells; assay type: cell-based
[3] = system: MCF-7 breast cancer cells; test: Growth inhibition of MCF-7 breast cancer cells; assay type: cell-based, human

For `CN(C)S(=O)(=O)O[C@@H]1CCC2C3CCc4cc(OCc5ccccc5)ccc4C3CC[C@@]21C` (some centres unmarked), the melting point was 82 to 86 °C (dec.).

For `CC1=C2CCC3c4ccc(OS(N)(=O)=O)cc4CCC3C2CC1` (centres unmarked), the melting point was 172 to 176 °C.

Compound `C[C@]12CCC3c4ccc(OCc5ccccc5)cc4CCC3C1CC[C@@H]2OS(N)(=O)=O` (some centres unmarked) has a melting point of 108 to 109 °C.

With `C[C@]12CCC3c4ccc(OCc5ccccc5)cc4CCC3C1CC[C@H]2OS(N)(=O)=O` (some centres unmarked) the melting point was 91 to 93 °C.

With `C[C@]12CCC3c4ccc(OCc5ccccc5)cc4CCC3C1CC[C@H]2OS(=O)(=O)N(Cc1ccccc1)Cc1ccccc1` (some centres unmarked) the melting point was 115 to 116 °C.

In the case of `CN(C)S(=O)(=O)O[C@H]1CCC2C3CCc4cc(OCc5ccccc5)ccc4C3CC[C@@]21C` (some centres unmarked), the melting point is reported as 117 to 121 °C.

Compound `CC1=C2CCC3c4ccc(OS(N)(=O)=O)cc4CCC3C2CC1` (centres unmarked) [BLE00086] has an inhibition at 0.1 µM (Plate assay % inhibition; 0.1 μM) of 8%, an inhibition at 1 µM (Plate assay % inhibition; 1 μM) of 3% and an inhibition at 10 µM (Plate assay % inhibition) of 14%.

For `COc1cc2c(cc1O)CCC1C2CC[C@@]2(C)C1CC[C@@]2(O)Cc1ccc(C(C)(C)C)cc1` (some centres unmarked) [BLE01008], the “Plate assay % inhibition” value (Plate assay % inhibition; 0.1 μM) was −12% and the “Plate assay % inhibition” value (Plate assay % inhibition; 1 μM) was −15%.

In the case of `COc1cc2c(cc1O)CCC1C2CC[C@@]2(C)C1CC[C@@]2(O)Cc1ccccc1` (some centres unmarked) [BLE01014], the “Plate assay % inhibition” value (Plate assay % inhibition; 0.1 μM) is reported as −14% and the “Plate assay % inhibition” value (Plate assay % inhibition; 1 μM) is reported as −14%.

In the case of `COc1cc2c(cc1OS(N)(=O)=O)CCC1C2CCC2(C)C1CCC2(O)Cc1ccc(C(C)(C)C)cc1` (centres unmarked) [BLE01016], the inhibition at 0.1 µM (Plate assay % inhibition; 0.1 μM) is reported as -14%, the inhibition at 1 µM (Plate assay % inhibition; 1 μM) is reported as -10% and the inhibition at 10 µM (Plate assay % inhibition) is reported as -3%.

In the case of `COc1cc2c(cc1OS(N)(=O)=O)CCC1C2CCC2(C)C1CCC2(O)Cc1ccccc1` (centres unmarked) [BLE01018], the inhibition at 0.1 µM (Plate assay % inhibition; 0.1 μM) is reported as -19% and the inhibition at 1 µM (Plate assay % inhibition; 1 μM) is reported as -12%.

In the case of `CC12CCC3c4ccc(OS(N)(=O)=O)cc4CCC3C1CCC2OS(N)(=O)=O` (centres unmarked) [BLE99031B], the inhibition at 0.1 µM (Plate assay % inhibition; 0.1 μM) is reported as 7%, the inhibition at 1 µM (Plate assay % inhibition; 1 μM) is reported as 12% and the inhibition at 10 µM (Plate assay % inhibition) is reported as 32%.

With `CC(=O)NS(=O)(=O)O[C@H]1CCC2C3CCc4cc(O)ccc4C3CC[C@@]21C` (stereo partly drawn) [BLE99058, 3-Hydroxyestra-1,3,5(10)-trien-17β-O-(N-acetyl)sulfamate] the melting point was 130 to 134 °C (dec.), the inhibition at 0.01 µM ([1]; 10 nM, -ve % means stimulation) was 0.9% and the inhibition at 1 µM ([1]; 1 μM, -ve % means stimulation) was 7.8%.

`C[C@]12CCC3c4ccc(O)cc4CCC3C1CC[C@@H]2OS(=O)(=O)N(Cc1ccccc1)Cc1ccccc1` (stereo partly drawn) [BLE99060, 3-Hydroxyestra-1,3,5(10)-trien-17β-O—(N,N-dibenzyl)sulfamate] gave a melting point of 60 to 63 °C, an inhibition at 0.01 µM ([1]; 10 nM, -ve % means stimulation) of -3.2% and an inhibition at 1 µM ([1]; 1 μM, -ve % means stimulation) of 1.36%.

For `C[C@]12CCC3c4ccc(OS(N)(=O)=O)cc4CCC3C1CC[C@@H]2OS(=O)(=O)N(Cc1ccccc1)Cc1ccccc1` (stereo partly drawn) [BLE99063, 3-O-Sulfamoyl-estra-1,3,5(10)-trien-17β-O—(N,N-dibenzyl)sulfamate], the melting point was 60 to 64 °C and 58 to 62 °C, the inhibition at 0.01 µM ([1]; 10 nM, -ve % means stimulation) was -1.9% and the inhibition at 1 µM ([1]; 1 μM, -ve % means stimulation) was 38.2%.

In the case of `CC(=O)NS(=O)(=O)O[C@H]1CCC2C3CCc4cc(OS(N)(=O)=O)ccc4C3CC[C@@]21C` (stereo partly drawn) [BLE99065, 3-O-Sulfamoyl-estra-1,3,5(10)-trien-17β-O-(N-acetyl)sulfamate], the inhibition at 0.1 µM (Plate assay % inhibition; 0.1 μM) is reported as 7%, the inhibition at 1 µM (Plate assay % inhibition; 1 μM) is reported as 5% and the inhibition at 10 µM (Plate assay % inhibition) is reported as 23%. The melting point was 76 to 80 °C (dec.), the inhibition at 0.01 µM ([1]; 10 nM, -ve % means stimulation) was 9.8% and the inhibition at 1 µM ([1]; 1 μM, -ve % means stimulation) was 91%.

For `C[C@]12CCC3c4ccc(O)cc4CCC3C1CC[C@H]2OS(=O)(=O)N(Cc1ccccc1)Cc1ccccc1` (stereo partly drawn) [BLE99066, 3-Hydroxyestra-1,3,5(10)-trien-17α-O—(N,N-dibenzyl)sulfamate], the inhibition at 0.1 µM (Plate assay % inhibition; 0.1 μM) was 11%, the inhibition at 1 µM (Plate assay % inhibition; 1 μM) was 5% and the inhibition at 10 µM (Plate assay % inhibition) was 27%. The melting point was 57 to 60 °C, the inhibition at 0.01 µM ([1]; 10 nM, -ve % means stimulation) was 1.4% and the inhibition at 1 µM ([1]; 1 μM, -ve % means stimulation) was 4.5%.

Compound `CN(C)S(=O)(=O)O[C@H]1CCC2C3CCc4cc(O)ccc4C3CC[C@@]21C` (stereo partly drawn) [BLE99067, 3-Hydroxyestra-1,3,5(10)-trien-17β-O—(N,N-dimethyl)sulfamate] has an inhibition at 0.1 µM (Plate assay % inhibition; 0.1 μM) of -5%, an inhibition at 1 µM (Plate assay % inhibition; 1 μM) of -1% and an inhibition at 10 µM (Plate assay % inhibition) of 50%. For the same compound, the melting point was 170 to 173 °C, the inhibition at 0.01 µM ([1]; 10 nM, -ve % means stimulation) was -0.1% and the inhibition at 1 µM ([1]; 1 μM, -ve % means stimulation) was 8.7%.

Work on `C[C@]12CCC3c4ccc(OS(N)(=O)=O)cc4CCC3C1CC[C@H]2OS(=O)(=O)N(Cc1ccccc1)Cc1ccccc1` (stereo partly drawn) [BLE99068, 3-O-Sulfamoyl-estra-1,3,5(10)-trien-17α-O—(N,N-dibenzyl)sulfamate] yielded an inhibition at 0.1 µM (Plate assay % inhibition; 0.1 μM) of -18%, an inhibition at 1 µM (Plate assay % inhibition; 1 μM) of -1% and an inhibition at 10 µM (Plate assay % inhibition) of 19%. It also gave an inhibition at 0.01 µM ([1]; 10 nM, -ve % means stimulation) of 4.9% and an inhibition at 1 µM ([1]; 1 μM, -ve % means stimulation) of 58.2%.

For `CN(C)S(=O)(=O)O[C@H]1CC[C@H]2[C@@H]3CCc4cc(OS(N)(=O)=O)ccc4[C@H]3CC[C@]12C` [BLE99069, 3-O-Sulfamoyl-estra-1,3,5(10)-trien-17β-O—(N,N-dimethyl)sulfamate], the “Plate assay % inhibition” value (Plate assay % inhibition; 0.1 μM) was 3%, the “Plate assay % inhibition” value (Plate assay % inhibition; 1 μM) was 10% and the “Placental Microcsomes % inhibition” value ([1]; 10 nM, -ve % means stimulation) was 30.3^1%. For the same compound, the “Placental Microcsomes % inhibition” value ([1]; 1 μM, -ve % means stimulation) was 96.3^1%.

`CCCCCN(CCCCC)S(=O)(=O)O[C@H]1CCC2C3CCc4cc(O)ccc4C3CC[C@@]21C` (stereo partly drawn) [BLE99073, 3-Hydroxyestra-1,3,5(10)-trien-17β-O—(N,N-dipentyl)sulfamate] showed a melting point of 93 to 96 °C, an inhibition at 0.01 µM [1] of 1.2% and an inhibition at 1 µM [1] of -11.8%.

In the case of `CCCCCN(CCCCC)S(=O)(=O)O[C@H]1CCC2C3CCc4cc(OS(N)(=O)=O)ccc4C3CC[C@@]21C` (stereo partly drawn) [BLE99074, 3-O-Sulfamoyl-estra-1,3,5(10)-trien-17β-O—(N,N-dipentyl)sulfamate], the melting point is reported as 105 to 107 °C and the inhibition at 1 µM ([1]; 1 μM, -ve % means stimulation) is reported as 23.7%.

With `CCc1cc2c(cc1O)CC[C@@H]1[C@@H]2CC[C@]2(C)[C@@H](O)CC[C@@H]12` [Compound 2-EtE2] the “Colchicine Displacement Assay (%)” value (tubulin) was 6%.

For `COc1cc2c(cc1O)CC[C@@H]1[C@@H]2CC[C@]2(C)[C@@H](O)CC[C@@H]12` [Compound 2-MeOE2, 2-methoxyoestradiol], the “Colchicine Displacement Assay (%)” value (tubulin) was 41%.

In the case of `O=C1c2ccccc2C(=O)c2c1oc1cc(O)ccc21` [Compound 12, 3-Hydroxybenzo[b]naphtho[2,3-d]furan-6,11-dione], the inhibition at 10 µM ([2]; MCF7, 10 μM) is reported as 3%, the inhibition at 0.1 µM ([3]; Homo sapiens, MCF7, 0.1 μM, read-out: percentage growth inhibition of MCF-7 breast cancer cells) is reported as 12% and the inhibition at 1 µM ([3]; Homo sapiens, MCF7, 1 μM, read-out: percentage growth inhibition of MCF-7 breast cancer cells) is reported as 20%. It also gave an inhibition at 10 µM ([3]; Homo sapiens, MCF7, 10 μM, read-out: percentage growth inhibition of MCF-7 breast cancer cells) of 56% and a melting point of over 310 °C.

For `NS(=O)(=O)Oc1ccc2c3c(oc2c1)C(=O)c1ccccc1C3=O` [Compound 13, Benzo[b]naphtho[2,3-d]furan-6,11-dione 3-O-sulphamate], the “% Inhibition of E1-STS activity in MCF-7 cells” value (“% Inhibition of E1-STS activity” for short) ([2]; 0.1 μM) was 46.6 ± 4.5%, the “% Inhibition of E1-STS activity” value ([2]; 1 μM) was 93.9 ± 0.8% and the “% Inhibition of E1-STS activity” value ([2]; 10 μM) was 99% and 98.6 ± 0.3%. For the same compound, the “effect on MCF-7 cells (toxicity)” value [3] was “kills the MCF-7 cells”, the “percentage growth inhibition of MCF-7 breast cancer cells” value (from here on “percentage growth inhibition”) ([3]; 0.1 μM) was “inactive” and the “percentage growth inhibition” value ([3]; 1 μM) was 41%. The “percentage growth inhibition” value ([3]; 10 μM) was 44%.

In the case of `NS(=O)(=O)Oc1ccc(C(O)(c2ccc(OS(N)(=O)=O)cc2)C2CCCCC2)cc1` [Compound 25, 1-Cyclohexyl-1,1-di-(4-sulphamoyloxyphenyl)methanol], the inhibition at 0.1 µM ([2]; MCF7, 0.1 μM) is reported as under 10%, the inhibition at 1 µM ([2]; MCF7, 1 μM) is reported as 27.4 ± 0.8% and the inhibition at 10 µM ([2]; MCF7, 10 μM) is reported as 75.1 ± 2.8%. For the same compound, the melting point was 213 to 215 °C (dec.).
